Molecular target: T1, human RXFP1 (Homo sapiens, UniProt Q9HBX9)
T1 construct: expressed in transfected cells; host or cells: HEK293
T1 sequence (Q9HBX9 1-757): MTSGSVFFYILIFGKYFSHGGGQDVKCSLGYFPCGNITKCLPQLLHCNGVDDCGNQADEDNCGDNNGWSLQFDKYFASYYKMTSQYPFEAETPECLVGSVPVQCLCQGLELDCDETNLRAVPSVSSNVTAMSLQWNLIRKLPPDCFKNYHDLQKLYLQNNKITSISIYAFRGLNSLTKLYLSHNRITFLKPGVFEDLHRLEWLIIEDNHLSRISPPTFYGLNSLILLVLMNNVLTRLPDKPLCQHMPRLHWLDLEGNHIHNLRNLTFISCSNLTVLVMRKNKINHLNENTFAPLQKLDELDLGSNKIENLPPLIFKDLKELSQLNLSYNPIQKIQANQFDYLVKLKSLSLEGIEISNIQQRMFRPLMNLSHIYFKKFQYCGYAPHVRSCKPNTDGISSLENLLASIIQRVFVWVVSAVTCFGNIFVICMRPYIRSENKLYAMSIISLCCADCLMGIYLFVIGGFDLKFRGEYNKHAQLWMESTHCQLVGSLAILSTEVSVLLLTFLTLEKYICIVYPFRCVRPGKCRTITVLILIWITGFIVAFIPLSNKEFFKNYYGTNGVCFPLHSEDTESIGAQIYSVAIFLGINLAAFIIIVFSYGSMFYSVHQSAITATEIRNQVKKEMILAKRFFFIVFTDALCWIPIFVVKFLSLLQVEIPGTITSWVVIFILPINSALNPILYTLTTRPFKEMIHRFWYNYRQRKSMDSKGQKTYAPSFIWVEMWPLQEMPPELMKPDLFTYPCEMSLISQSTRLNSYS
Test: hRXFP1 HEK293 cAMP assay
Format: cell-based
Conditions: HEK293 cells stably expressing human RXFP1; intracellular cAMP by HTRF; 30 min at room temperature
Protocol: RXFP1 Cyclic Adenosine Monophosphate (cAMP) Assays. Human embryonic kidney cells 293 (HEK293) cells and HEK293 cells stably expressing human RXFP1, were cultured in MEM medium supplemented with 10% qualified FBS, and 300 μg/ml hygromycin (Life Technologies). Cells were dissociated and suspended in assay buffer. The assay buffer was HBSS buffer (with calcium and magnesium) containing 20 mM HEPES, 0.05% BSA, and 0.5 mM IBMX. Cells (3000 cells per well, except 1500 cell per well for HEK293 cells stably expressing human RXFP1) were added to 384-well Proxiplates (Perkin-Elmer). Cells were immediately treated with test compounds in DMSO (2% final) at final concentrations in the range of 0.010 nM to 50 μM. Cells were incubated for 30 min at room temperature. The level of intracellular cAMP was determined using the HTRF HiRange cAMP assay reagent kit (Cisbio) according to manufacturer's instructions. Solutions of cryptate conjugated anti-cAMP and d2 fluorophore-labelled cAMP were made in a supplied lysis buffer separately. Upon completion of the reaction, the cells were lysed with equal volume of the d2-cAMP solution and anti-cAMP solution. After a 1 h room temperature incubation, time-resolved fluorescence intensity was measured using the Envision (Perkin-Elmer) at 400 nm excitation and dual emission at 590 nm and 665 nm. A calibration curve was constructed with an external cAMP standard at concentrations ranging from 2.7 μM to 0.1 μM by plotting the fluorescent intensity ratio from 665 nm emission to the intensity from the 590 nm emission against cAMP concentrations. The potency and activity of a compound to […] cAMP production was then determined by fitting to a 4-parametric logistic equation from a plot of cAMP level versus compound concentrations.
The examples disclosed below were tested in the human RXFP1 (hRXFP1) HEK293 cAMP assay described above and found to have agonist activity. Tables 1-3, lists EC50 values in the hRXFP1 HEK293 cAMP assay measured for the examples.

EC50 [nM]	Compound
320	COc1ccc(C2=NOC3CC(CO)CC23)cc1C(=O)Nc1cc2ccccc2cc1C(=O)Nc1ccc(F)c(C(F)(F)F)c1 (single isomer, unassigned) [Example 13, N-(4-fluoro-3-(trifluoromethyl)phenyl)-3-(5-(5-(hydroxymethyl)-3a,5,6,6a-tetrahydro-4H-cyclopenta[d]isoxazol-3-yl)-2-methoxybenzamido)-2-naphthamide]
4800	COc1ccc(S(=O)(=O)CCCO)cc1C(=O)Nc1cc2ccccc2cc1C(=O)Nc1ccc(F)c(C(F)(F)F)c1 [Example 9, N-(4-fluoro-3-(trifluoromethyl)phenyl)-3-(5-((3-hydroxypropyl)sulfonyl)-2-methoxybenzamido)-2-naphthamide]
190	COc1ccc(C2=NOC3CC(O)CC23)cc1C(=O)Nc1cc2ccccc2cc1C(=O)Nc1ccc(F)c(C(F)(F)F)c1 (single isomer, unassigned) [Example 15, N-(4-fluoro-3-(trifluoromethyl)phenyl)-3-(5-(5-hydroxy-3a,5,6,6a-tetrahydro-4H-cyclopenta[d]isoxazol-3-yl)-2-methoxybenzamido)-2-naphthamide]
2600	COc1ccc(-c2cc(C(=O)O)ccc2F)cc1C(=O)Nc1cc2ccc(Br)cc2cc1C(=O)Nc1ccc(F)c(C(F)(F)F)c1 [Example 8, 3′-((6-bromo-3-((4-fluoro-3-(trifluoromethyl)phenyl)carbamoyl)naphthalen-2-yl)carbamoyl)-6-fluoro-4′-methoxy-[1,1′-biphenyl]-3-carboxylic acid]
1400	COc1ccc(-n2ncccc2=O)cc1C(=O)Nc1cc2ccccc2cc1C(=O)Nc1ccc(F)c(C(F)(F)F)c1 [Example 12, N-(4-fluoro-3-(trifluoromethyl)phenyl)-3-(2-methoxy-5-(6-oxopyridazin-1(6H)-yl)benzamido)-2-naphthamide]
2000	COc1ccc(N2CCCS2(=O)=O)cc1C(=O)Nc1cc2ccccc2cc1C(=O)Nc1ccc(F)c(C(F)(F)F)c1 [Example 11, 3-(5-(1,1-dioxidoisothiazolidin-2-yl)-2-methoxybenzamido)-N-(4-fluoro-3-(trifluoromethyl)-phenyl)-2-naphthamide]
60	COc1ccc(C2=NOC3CC(CO)CC23)cc1C(=O)Nc1cc2ccccc2cc1C(=O)Nc1ccc(F)c(C(F)(F)F)c1 (single isomer, unassigned) [Example 14, N-(4-fluoro-3-(trifluoromethyl)phenyl)-3-(5-(5-(hydroxymethyl)-3a,5,6,6a-tetrahydro-4H-cyclopenta[d]isoxazol-3-yl)-2-methoxybenzamido)-2-naphthamide]
5000	COc1ccc(C#C[C@H](C)O)cc1C(=O)Nc1cc2ccccc2cc1C(=O)Nc1ccc(F)c(C(F)(F)F)c1 [Example 10, (S)—N-(4-fluoro-3-(trifluoromethyl)phenyl)-3-(5-(3-hydroxybut-1-yn-1-yl)-2-methoxybenzamido)-2-naphthamide]

Further lines, the compound ahead of its results:

Compound	EC50 [nM]
COc1ccc(-c2cc(C(O)C(=O)O)ccc2F)cc1C(=O)Nc1cc2ccccc2cc1C(=O)Nc1ccc(F)c(C(F)(F)F)c1 (single isomer, unassigned) [Example 4, 2-(6-fluoro-3′-((3-((4-fluoro-3-(trifluoromethyl)phenyl)carbamoyl)naphthalen-2-yl)carbamoyl)-4′-methoxy-[1,1′-biphenyl]-3-yl)-2-hydroxyacetic acid]	490
COc1ccc(-c2cc([C@H](OC(=O)NC3CCC3)C(F)(F)F)ccc2F)cc1C(=O)Nc1cc2ccccc2cc1C(=O)Nc1ccc(F)c(C(F)(F)F)c1 [Example 5, (S)-2,2,2-trifluoro-1-(6-fluoro-3′-((3-((4-fluoro-3-(trifluoromethyl)phenyl)carbamoyl)-naphthalen-2-yl)carbamoyl)-4′-methoxy-[1,1′-biphenyl]-3-yl)ethyl cyclobutylcarbamate]	11
COc1ccc(-c2cc(C(=O)O)ccc2F)cc1C(=O)Nc1cc2ccccc2cc1C(=O)Nc1ccc(F)c(C(F)(F)F)c1 [Example 1, 6-fluoro-3′-((3-((4-fluoro-3-(trifluoromethyl)phenyl)carbamoyl)naphthalen-2-yl)carbamoyl)-4′-methoxy-[1,1′-biphenyl]-3-carboxylic acid]	1100
COc1ccc(-c2cc(C(=O)O)ccc2F)cc1C(=O)Nc1cc2c(Br)cccc2cc1C(=O)Nc1ccc(F)c(C(F)(F)F)c1 [Example 6, 3′-((8-bromo-3-((4-fluoro-3-(trifluoromethyl)phenyl)carbamoyl)naphthalen-2-yl)carbamoyl)-6-fluoro-4′-methoxy-[1,1′-biphenyl]-3-carboxylic acid]	1300
COc1ccc(-c2cc(C(NC(=O)C3CCOCC3)C(=O)O)ccc2F)cc1C(=O)Nc1cc2cc(Br)c(Br)cc2cc1C(=O)Nc1ccc(F)c(C(F)(F)F)c1 (stereo not drawn) [Example 3, 2-(3′-((6,7-dibromo-3-((4-fluoro-3-(trifluoromethyl)phenyl)-carbamoyl)naphthalen-2-yl)carbamoyl)-6-fluoro-4′-methoxy-[1,1′-biphenyl]-3-yl)-2-(tetrahydro-2H-pyran-4-carboxamido)acetic acid]	190
COc1ccc(-c2cc(C(NC(=O)C3CCOCC3)C(=O)O)ccc2F)cc1C(=O)Nc1cc2ccccc2cc1C(=O)Nc1ccc(F)c(C(F)(F)F)c1 (stereo not drawn) [Example 2, 2-(6-fluoro-3′-((3-((4-fluoro-3-(trifluoromethyl)phenyl)carbamoyl)naphthalen-2-yl)carbamoyl)-4′-methoxy-[1,1′-biphenyl]-3-yl)-2-(tetrahydro-2H-pyran-4-carboxamido)acetic acid]	4.2

Test system: not given
Test: not given
Conditions: intravenous (IV) formulation; cited from earlier work

Compound	first-phase pharmacokinetic half-life [min]
Serelaxin	5.4

From patent publication US20250100960A1, “NAPHTHALENE AND QUINOLINE ANALOGS AS RXFP1 AGONISTS” (BRISTOL-MYERS SQUIBB COMPANY, priority 2021, published 2025)
